Laboratory results from ChEMBL document CHEMBL3885881, “DrugMatrix”.

Organism: Rattus norvegicus
Assay: DrugMatrix - Regimen: Daily Repeat
Format: toxicity, organism-based, Sprague-Dawley
Set-up: regimen Daily Repeat, gender Male, age 6-8 weeks
Conditions: in vivo, sc, route subcutaneous, […]; for ABSOLUTE BASOPHIL / ABSOLUTE EOSINOPHIL / ABSOLUTE LYMPHOCYTE / ABSOLUTE MONOCYTE / ABSOLUTE SEGMENTED NEUTROPHIL / BASOPHIL / EOSINOPHIL / ERYTHROCYTE COUNT / HEMATOCRIT / HEMOGLOBIN / LEUKOCYTE COUNT / LYMPHOCYTE / MEAN CORPUSCULAR HEMOGLOBIN / MEAN CORPUSCULAR HEMOGLOBIN CONCENTRATION / MEAN CORPUSCULAR VOLUME / MONOCYTE / NEUTROPHIL / NUCLEATED RED BLOOD CELLS / PLATELET COUNT: tissue Blood; for ALANINE AMINOTRANSFERASE / ALBUMIN / ALKALINE PHOSPHATASE / ASPARTATE AMINOTRANSFERASE / BLOOD UREA NITROGEN / CARBON DIOXIDE / CHLORIDE / CHOLESTEROL / CREATINE PHOSPHOKINASE / CREATININE / GLUCOSE / LACTATE DEHYDROGENASE / LIPASE / PHOSPHORUS / POTASSIUM / SODIUM / TOTAL BILIRUBIN / TOTAL PROTEIN / URIC ACID: tissue Plasma
[1] = 68 mg/kg, 72 h, dose level High, time 3 day
[2] = 68 mg/kg, 120 h, dose level High, time 5 day
[3] = 72 h, dose 6.8 mg/Kg, dose level Low, time 3 day
[4] = 120 h, dose 6.8 mg/Kg, dose level Low, time 5 day

Compound: Oc1cccc2cccnc12 [OXYQUINOLINE]
- ABSOLUTE BASOPHIL [1]: 0 CELLS/uL
- ABSOLUTE EOSINOPHIL [1]: 246.33 CELLS/uL
- ABSOLUTE LYMPHOCYTE [1]: 13064.33 CELLS/uL
- ABSOLUTE MONOCYTE [1]: 405.33 CELLS/uL
- ABSOLUTE SEGMENTED NEUTROPHIL [1]: 1850.67 CELLS/uL
- BASOPHIL [1]: 0%
- EOSINOPHIL [1]: 1.67%
- ERYTHROCYTE COUNT [1]: 5.38 x10E6/uL
- HEMATOCRIT [1]: 34.33%
- HEMOGLOBIN [1]: 12.8 G/DL
- LEUKOCYTE COUNT [1]: 15.57 x10E3/uL
- LYMPHOCYTE [1]: 83.67%
- MEAN CORPUSCULAR HEMOGLOBIN [1]: 23.83 pg
- MEAN CORPUSCULAR HEMOGLOBIN CONCENTRATION [1]: 37.33 G/DL
- MEAN CORPUSCULAR VOLUME [1]: 63.87 fL
- MONOCYTE [1]: 2.67%
- NEUTROPHIL [1]: 12%
- NUCLEATED RED BLOOD CELLS [1]: 0 /100WBC
- PLATELET COUNT [1]: 1290 x10E3/uL
- ALANINE AMINOTRANSFERASE [1]: 49.33 u/L
- ALBUMIN [1]: 3.73 G/DL
- ALKALINE PHOSPHATASE [1]: 444 u/L
- ASPARTATE AMINOTRANSFERASE [1]: 72 u/L
- BLOOD UREA NITROGEN [1]: 18.67 mg/dL
- CARBON DIOXIDE [1]: 26 mmol/L
- CHLORIDE [1]: 105 MEQ/L
- CHOLESTEROL [1]: 65.33 mg/dL
- CREATINE PHOSPHOKINASE [1]: 160.33 u/L
- CREATININE [1]: 0.13 mg/dL
- GLUCOSE [1]: 169 mg/dL
- LACTATE DEHYDROGENASE [1]: 87.67 u/L
- LIPASE [1]: 8.67 u/L
- PHOSPHORUS [1]: 12.4 mg/dL
- POTASSIUM [1]: 6.22 MEQ/L
- SODIUM [1]: 146.43 MEQ/L
- TOTAL BILIRUBIN [1]: 0.2 mg/dL
- TOTAL PROTEIN [1]: 5.63 G/DL
- URIC ACID [1]: 1.07 mg/dL
- ABSOLUTE BASOPHIL [2]: 0 CELLS/uL
- ABSOLUTE EOSINOPHIL [2]: 367.33 CELLS/uL
- ABSOLUTE LYMPHOCYTE [2]: 11402.67 CELLS/uL
- ABSOLUTE MONOCYTE [2]: 397.67 CELLS/uL
- ABSOLUTE SEGMENTED NEUTROPHIL [2]: 1465.67 CELLS/uL
- BASOPHIL [2]: 0%
- EOSINOPHIL [2]: 2.67%
- ERYTHROCYTE COUNT [2]: 5.88 x10E6/uL
- HEMATOCRIT [2]: 36.73%
- HEMOGLOBIN [2]: 13.63 G/DL
- LEUKOCYTE COUNT [2]: 13.63 x10E3/uL
- LYMPHOCYTE [2]: 83.33%
- MEAN CORPUSCULAR HEMOGLOBIN [2]: 23.2 pg
- MEAN CORPUSCULAR HEMOGLOBIN CONCENTRATION [2]: 37.13 G/DL
- MEAN CORPUSCULAR VOLUME [2]: 62.53 fL
- MONOCYTE [2]: 3%
- NEUTROPHIL [2]: 11%
- NUCLEATED RED BLOOD CELLS [2]: 0 /100WBC
- PLATELET COUNT [2]: 1567 x10E3/uL
- ALANINE AMINOTRANSFERASE [2]: 37.67 u/L
- ALBUMIN [2]: 3.87 G/DL
- ALKALINE PHOSPHATASE [2]: 326.67 u/L
- ASPARTATE AMINOTRANSFERASE [2]: 67 u/L
- BLOOD UREA NITROGEN [2]: 16.67 mg/dL
- CARBON DIOXIDE [2]: 25.33 mmol/L
- CHLORIDE [2]: 105 MEQ/L
- CHOLESTEROL [2]: 75.33 mg/dL
- CREATINE PHOSPHOKINASE [2]: 175 u/L
- CREATININE [2]: 0.16 mg/dL
- GLUCOSE [2]: 162 mg/dL
- LACTATE DEHYDROGENASE [2]: 86.67 u/L
- LIPASE [2]: 8 u/L
- PHOSPHORUS [2]: 13.33 mg/dL
- POTASSIUM [2]: 6.17 MEQ/L
- SODIUM [2]: 147.4 MEQ/L
- TOTAL BILIRUBIN [2]: 0.17 mg/dL
- TOTAL PROTEIN [2]: 6.03 G/DL
- URIC ACID [2]: 2.03 mg/dL
- ABSOLUTE BASOPHIL [3]: 0 CELLS/uL
- ABSOLUTE EOSINOPHIL [3]: 0 CELLS/uL
- ABSOLUTE LYMPHOCYTE [3]: 14772 CELLS/uL
- ABSOLUTE MONOCYTE [3]: 208 CELLS/uL
- ABSOLUTE SEGMENTED NEUTROPHIL [3]: 1086.67 CELLS/uL
- BASOPHIL [3]: 0%
- EOSINOPHIL [3]: 0%
- ERYTHROCYTE COUNT [3]: 5.93 x10E6/uL
- HEMATOCRIT [3]: 37.03%
- HEMOGLOBIN [3]: 13.73 G/DL
- LEUKOCYTE COUNT [3]: 16.07 x10E3/uL
- LYMPHOCYTE [3]: 91.33%
- MEAN CORPUSCULAR HEMOGLOBIN [3]: 23.23 pg
- MEAN CORPUSCULAR HEMOGLOBIN CONCENTRATION [3]: 37.07 G/DL
- MEAN CORPUSCULAR VOLUME [3]: 62.63 fL
- MONOCYTE [3]: 1.33%
- NEUTROPHIL [3]: 7.33%
- NUCLEATED RED BLOOD CELLS [3]: 0.33 /100WBC
- PLATELET COUNT [3]: 1308.67 x10E3/uL
- ALANINE AMINOTRANSFERASE [3]: 45.67 u/L
- ALBUMIN [3]: 4.3 G/DL
- ALKALINE PHOSPHATASE [3]: 363.67 u/L
- ASPARTATE AMINOTRANSFERASE [3]: 73.33 u/L
- BLOOD UREA NITROGEN [3]: 15 mg/dL
- CARBON DIOXIDE [3]: 24.33 mmol/L
- CHLORIDE [3]: 103 MEQ/L
- CHOLESTEROL [3]: 68.67 mg/dL
- CREATINE PHOSPHOKINASE [3]: 130.33 u/L
- CREATININE [3]: 0.2 mg/dL
- GLUCOSE [3]: 142.67 mg/dL
- LACTATE DEHYDROGENASE [3]: 83.33 u/L
- LIPASE [3]: 8.67 u/L
- PHOSPHORUS [3]: 11.27 mg/dL
- POTASSIUM [3]: 6.77 MEQ/L
- SODIUM [3]: 146.07 MEQ/L
- TOTAL BILIRUBIN [3]: 0.2 mg/dL
- TOTAL PROTEIN [3]: 5.57 G/DL
- URIC ACID [3]: 1.63 mg/dL
- ABSOLUTE BASOPHIL [4]: 0 CELLS/uL
- ABSOLUTE EOSINOPHIL [4]: 182.67 CELLS/uL
- ABSOLUTE LYMPHOCYTE [4]: 12749.33 CELLS/uL
- ABSOLUTE MONOCYTE [4]: 601.33 CELLS/uL
- ABSOLUTE SEGMENTED NEUTROPHIL [4]: 1500 CELLS/uL
- BASOPHIL [4]: 0%
- EOSINOPHIL [4]: 1.33%
- ERYTHROCYTE COUNT [4]: 6.16 x10E6/uL
- HEMATOCRIT [4]: 37.9%
- HEMOGLOBIN [4]: 13.87 G/DL
- LEUKOCYTE COUNT [4]: 15.03 x10E3/uL
- LYMPHOCYTE [4]: 84.67%
- MEAN CORPUSCULAR HEMOGLOBIN [4]: 22.53 pg
- MEAN CORPUSCULAR HEMOGLOBIN CONCENTRATION [4]: 36.6 G/DL
- MEAN CORPUSCULAR VOLUME [4]: 61.5 fL
- MONOCYTE [4]: 4%
- NEUTROPHIL [4]: 10%
- NUCLEATED RED BLOOD CELLS [4]: 0 /100WBC
- PLATELET COUNT [4]: 1278.67 x10E3/uL
- ALANINE AMINOTRANSFERASE [4]: 45 u/L
- ALBUMIN [4]: 4.2 G/DL
- ALKALINE PHOSPHATASE [4]: 341 u/L
- ASPARTATE AMINOTRANSFERASE [4]: 77 u/L
- BLOOD UREA NITROGEN [4]: 19 mg/dL
- CARBON DIOXIDE [4]: 24.33 mmol/L
- CHLORIDE [4]: 107 MEQ/L
- CHOLESTEROL [4]: 75.33 mg/dL
- CREATINE PHOSPHOKINASE [4]: 227.33 u/L
- CREATININE [4]: 0.17 mg/dL
- GLUCOSE [4]: 154.33 mg/dL
- LACTATE DEHYDROGENASE [4]: 324 u/L
- LIPASE [4]: 9 u/L
- PHOSPHORUS [4]: 12.23 mg/dL
- POTASSIUM [4]: 6.39 MEQ/L
- SODIUM [4]: 146.97 MEQ/L
- TOTAL BILIRUBIN [4]: 0.13 mg/dL
- TOTAL PROTEIN [4]: 6.37 G/DL
- URIC ACID [4]: 1.5 mg/dL
